Measured values taken from patent US20100240656A1, “COMPOUNDS AS HSP90 INHIBITORS” (ORYZON GENOMICS, S.A., priority 2007, published 2010).
“Also recorded” adds a separate entry of the source.

Key:
[1] = tested on: Hsp90 client proteins (c-Raf-1, Cdk4, Her2) and co-chaperone Hsp70; test: Determination of biomarkers in cell cultures (western blot, MCF7 cells); format: cell-based, human; details: 33 and 100 μM, 72 hours
From the text: FIG. 1 is a western blot analysis to determine the protein levels of Hsp90 client proteins (c-Raf-1, Cdk4, and Her2) and the co-chaperone Hsp70 upon treatment with increasing concentrations of example 6 (compound of the invention) and 17AAG (which is known in the state of the art as a degradation promoter).
The aim of this study was to determine the influence of example 6 on the levels of pharmacodynamic biomarkers such as c-Raf-1, Cdk4, Her2 and Hsp70, indicative that the effect observed in cell viability is mediated through inhibition of Hsp90. GADPH was used as a control of protein loading.
MCF7 cells (1×10^6) were seeded on tissue culture dishes and allowed to grow overnight at 37° C. with 5% CO2. Cells were treated with example 6 compound (at 33 and 100 μM) and the known Hsp90 inhibitor 17AAG (at […]). 0.5% DMSO was used as control. […] Protein concentration was measured by the Bradford method (Bio-Rad Protein Assay, Bio-Rad). […] Following appropriate secondary antibody incubation for 1 h at room temperature (anti-rabbit IgG-HRP, NA934V, Amersham Biosciences, diluted 1:8000; anti-mouse IgG-HRP, sc-2061, Santa Cruz Biotechnology, diluted 1:2500 and, anti-goat IgG-HRP, sc-31154, Santa Cruz Biotechnology, diluted 1:3500), the specific protein signals were detected using the ECL-Plus Western blotting detection system (GE Healthcare) according to the manufacturer's instructions. […]

MCF-7 = test: Cell growth inhibition by AlamarBlue method, MCF-7; format: cell-based, human; details: Homo sapiens, MCF7; MCF-7, 72 hours; read-out: Cell growth inhibition values (EC50) obtained with AlamarBlue method
Method: The human colon cancer cell line HCT-116 and the human breast cell lines MCF-7 and SKBr3 were from the American Type Culture Collection (ATCC; CCL-247, HTB-22 and HTB-30, respectively).
The HCT-116 and SKBr3 cell lines were maintained in DMEM GlutaMAX (Invitrogen) supplemented with 10% fetal calf serum and the MCF-7 cell line was maintained in RPMI1640 GlutaMAX (Invitrogen) containing 1 mM sodium pyruvate and 10% fetal calf serum. Cells were grown in a humidified incubator at 37° C. in 5% CO2
Cells were plated in 96-well plates (Costar, 3596) at a density of 6000 cells/well in 50 μL medium 24 h before addition of the compounds. Compounds were then added in 8 concentrations, each in triplicate (dilution series of 1 to 3). To do so, a compound-dilution plate at 200× the screening concentrations was prepared in DMSO 100% (Sigma, 154938). Then, 1.7 μL of the 200× diluted compounds were transferred to a new plate and 170 μL of media were added and mixed with the pipette (plate at 2×). Columns 11 and 12 of this plate (controls) were filled with 1% DMSO in cell media (i.e. 1.7 μL DMSO and 170 μL cell media). Finally, 50 μL of this intermediate plate at 2× were transferred to the plate containing the seeded cells and slowly shaken manually. Cells were grown as described above. AlamarBlue viability assay (Biosource, Invitrogen, DAL1100) was performed 72 hours later following manufacturer's protocol. In brief, AlamarBlue diluted in media was added to cells to have a 5% solution (a 2× solution was prepared in media and 100 μL of this solution were transferred to each well, i.e. final volume of 200 μL). Cells were incubated at 37° C., 3 hours and at room temperature for an additional 30 min. Cells with no compound and, cells with no compound and lysed with triton X-100 (30 μL/well added 10 min before treatment with AlamarBlue) were used as controls (6 replicates of each). Fluorescence was monitored at 530 nm excitation and 590 nm emission wavelengths. Results were quantified using ELx800 Universal Microplate Reader (Bio-Tek Instruments, Inc.). EC50 were calculated as the dose of compound required to inhibit cell growth by 50%.

EC50 (MCF-7): 15.9 µM
SMILES: NCCCCCn1c(Sc2cc3c(cc2I)OCO3)nc(C(N)=O)c1N [Example 6, 5-amino-1-(5-amino-pentyl)-2-(6-iodo-benzo[1,3]dioxol-5-ylsulfanyl)-1H-imidazole-4-carboxamide]
protein levels of Hsp90 client proteins (c-Raf-1, Cdk4, Her2) and co-chaperone Hsp70 by western blot [1]: acts in a similar way that 17AAG; also recorded: there is a specific interaction with hsp90 target in cells
